Reference: publication PMC12302426, “Dihydrokoumine, a dual-target analgesic with reduced side effects isolated from a traditional Chinese medicine” (Journal of Advanced Research, 2024)

Experiments:
[1] = test system: HEK293 cells; test: DMR assay in untransfected HEK293 cells (background); format: cell-based; details: HEK293 cells without MOR
Protocol: (§1) DMR assays were performed using an Epic® BT system (Corning, NY, USA). All used cell lines were directly seeded in Epic 384-well biosensor microplates with a seeding density of 25,000 cells per well. After being cultured for about 22 h, the cells formed a monolayer with a confluency of about 95 % in the cell culture medium. Then the cells were manually washed using assay buffer (1 × HBSS buffer, 10 mM HEPES, pH = 7.4) and maintained in 30 μL of the assay buffer for 1 h. All samples were dissolved in DMSO and diluted freshly with the assay buffer containing 0.1 % BSA.
(§2) The DMR assays were conducted as follows. […] In the case of the DMR desensitization assay, cells were pretreated with analytes for one hour before introducing a specific agonist at the indicated concentration, and the agonist-induced DMR signals were monitored for one hour. Finally, for the DMR antagonist assay, cells underwent a 1-hour pretreatment with an antagonist before the addition of a specific agonist at the indicated concentration, and subsequent DMR signals were recorded over one hour.

[2] = molecular target: T1, MOR (Homo sapiens, UniProt P35372); test: Radioligand binding assay, [3H] DAMGO; details: [3H] DAMGO 0.5 nM
T1 construct: expressed in transfected cells; host or cells: HEK293 cell membranes
T1 sequence (P35372 whole entry): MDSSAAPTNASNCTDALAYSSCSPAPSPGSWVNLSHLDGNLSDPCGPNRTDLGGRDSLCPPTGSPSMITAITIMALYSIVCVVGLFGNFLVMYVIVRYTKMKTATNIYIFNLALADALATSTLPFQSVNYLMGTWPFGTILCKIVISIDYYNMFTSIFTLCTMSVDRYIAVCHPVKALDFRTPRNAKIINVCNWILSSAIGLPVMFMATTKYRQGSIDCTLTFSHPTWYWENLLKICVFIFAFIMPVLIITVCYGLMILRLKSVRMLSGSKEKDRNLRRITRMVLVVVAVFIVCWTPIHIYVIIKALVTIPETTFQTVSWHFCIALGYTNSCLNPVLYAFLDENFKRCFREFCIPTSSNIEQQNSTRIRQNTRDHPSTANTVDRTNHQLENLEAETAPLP
Protocol: Radioligand binding assays were conducted using MicroBeta2 (PerkinElmer, USA). Membrane protein preparations MOR and M3R were each prepared at a concentration of 2.5 µg/well. The radio ligands [^3H] DAMGO (specific for MOR) and [^3H]-NMS (specific for M3R) were prepared at concentrations of 0.5 nM and 0.2 nM, respectively. […] For each well, 1 µL of the serially diluted test compounds was transferred, followed by the addition of 100 µL of membrane stock solution and 100 µL of radioligand. The plates were sealed and shaken at 300 rpm at room temperature for one hour. Upon completion of the binding assay, the contents of each well were filtered through Unifilter-96 GF/C filter plates (PerkinElmer, USA). The filter plates were dried for one hour at 50°C and sealed. The trapped ^3H (tritium) on the filters was then quantified using the MicroBeta2. The percentage of inhibition or binding was subsequently calculated.

[3] = molecular target: T2, NOP opioid receptor (Homo sapiens, UniProt P41146); test: DMR agonist and desensitization assay in HEK293-NOP cells; format: cell-based
T2 construct: expressed in transfected cells; host or cells: HEK293-NOP
T2 sequence (P41146 whole entry): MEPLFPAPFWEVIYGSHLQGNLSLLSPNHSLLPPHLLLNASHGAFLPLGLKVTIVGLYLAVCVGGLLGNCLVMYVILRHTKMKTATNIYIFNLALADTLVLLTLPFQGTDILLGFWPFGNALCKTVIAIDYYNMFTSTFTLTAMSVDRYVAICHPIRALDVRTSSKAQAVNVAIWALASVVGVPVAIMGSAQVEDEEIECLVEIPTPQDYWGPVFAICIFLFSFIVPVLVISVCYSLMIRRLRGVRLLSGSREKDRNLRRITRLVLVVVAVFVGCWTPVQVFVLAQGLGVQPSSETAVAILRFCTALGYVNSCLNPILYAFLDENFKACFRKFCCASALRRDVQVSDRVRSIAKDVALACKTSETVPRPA
Protocol: as §1, §2
The receptor selectivity was evaluated against a set of G protein-coupled receptors (GPCRs), including opioid receptor (Delta/Kappa/NOP), dopamine receptor (D1/D2), orphan receptor (GPR35), adrenergic receptor (α2A/β2), serotonin receptor (5HT2A), histamine receptor (H1) and cannabinoid receptor (CB1). […]

[4] = test system: C57BL/6 male mice; test: Formalin paw test; format: in vivo
Protocol: The formalin test in mice was conducted following established procedures. Six-week-old C57BL/6 male mice were used in […] (n = 6). Mice were individually acclimated in a 4-liter glass beaker for 30 min prior to the test. Solvent mixture, […], morphine (5 mg/kg), or DK (20, 40 mg/kg) were injected intraperitoneally (5 mL/kg) 15 min prior to formalin injection. Formalin solution (5 %, 25 μL) was injected into the dorsal surface of the right hind paw using a 50 μL Hamilton syringe with a 30-gauge needle. […] Evaluation of MOR agonistic activity of dihydrokoumine, naloxone (2 mg/kg) was first injected intraperitoneally, immediately followed by the injection of morphine (5 mg/kg) or DK (20 mg/kg).

[5] = test system: C57BL/6 male mice; test: Hot-plate assay (acute pain); format: in vivo
Protocol: The hot-plate test in mice was conducted following previously established method. Six-week-old C57BL/6 male mice were used in hot-plate assay (n = 6). Hot-plate response latency (55°C) after drug treatment was used to measure antinociceptive effect, where response was defined by the animal either by licking paws, flicking paws or jumping. Mice were exposed to the hot plate (Ugo Basile model 7280, Comerio, Italy) for a maximum of 20 s to avoid tissue damage. After three days’ baseline measure, mice were injected intraperitoneally (5 mL/kg) with the solvent mixture, morphine (5 mg/kg) or DK (20, 40 mg/kg) and latency was tested 0.5-, 1-, 2-, 3- and 4- hours post-administration. Evaluation of MOR agonistic and M3R antagonistic activity of DK, naloxone (2 mg/kg) and oxotremorine (0.4 mg/kg) were first injected intraperitoneally, immediately followed by the injection of morphine (5 mg/kg, evaluation of MOR) or DK (20 mg/kg).

[6] = Pharmacokinetics, blood-brain barrier permeability; format: in vivo, C57BL/6 male mice
Protocol: Blood‐brain barrier permeability evaluation was as follows. C57BL/6 male mice (about 25 g) were used in evaluation of blood‐brain barrier permeability (n = 3). Mice were given a single dose of DK (20 mg/kg, 5 mL/kg, i.p.) through intraperitoneal injection. Blood (300 μL) was collected at 0.167, 0.5, 1, 2, 3 and 4 h into EDTA tubes. Plasma was obtained by mixing with acetonitrile and centrifugation (3000 r/min, 10 min). Meanwhile, brains were excised after saline perfusion at these time points. Brain samples were grinded (70 Hz, 90 s) and sonicated (30 s) to break up the tissue, followed by centrifugation (15,000 r/min, 10 min, […]) to obtain brain sample.
Brain and plasma drug levels were measured by LC-30AD (Shimadzu Corporation Kyoto, Japan) and SCIEX QTRAP-6500 (AB Sciex, Foster City, CA, USA) and calculated by comparing with internal standard (koumine, 200 ng/mL). The used column was Waters ACQUITY UPLC BEH C18 (2.1*150 mm, 1.7 μm); the mobile phase was composed of (A) 0.1 % FA in water and (B) 0.1 % FA in ACN; the elution gradient was 20 % B (0–3 min), 20–40 % B (3–5 min), 40–95 % B (5–6 min); the flow rate was 0.3 mL/min; and detection was in the positive mode.

SMILES: C=CC12CN(C)C3CC14c1ccccc1NC4C1CC2C3CO1 (centres unmarked) [DK]
- background DMR response [1]: No background response
- Ki [2]: 0.0857 ± 0.0361 µM
- efficacy (maximal inhibition of radioligand binding) [2]: 100%
- DMR agonist response ([3]; HEK293-NOP cells): unable to trigger a concentration-dependent DMR response
- probe-induced DMR response after DK pretreatment ([3]; HEK293-NOP, 25 nM MCOPPB, pretreatment one hour): had little effect on the DMR response produced by the respective probes
- effect of naloxone on antinociception in formalin test ([4]; DK 20 mg/kg, naloxone 2 mg/kg): Naloxone antagonized the antinociception of DK
- licking time in Phase I and Phase II ([4]; DK 20, 40 mg/kg i.p., formalin 5 %): remarkable decrease in the licking time in Phase I at both doses and in Phase II at high doses
- effect of naloxone on pain threshold in hot plate assay ([5]; DK 20 mg/kg, naloxone 2 mg/kg): naloxone failed to decrease the pain threshold of DK
- effect of oxotremorine on antinociception in hot plate assay ([5]; DK 20 mg/kg, oxotremorine 0.4 mg/kg): oxotremorine markedly diminished the antinociceptive efficacy of DK
- duration of antinociception ([5]; DK 20, 40 mg/kg i.p.): at least 3 h
- antinociception (hot-plate response latency) ([5]; DK 20, 40 mg/kg i.p., 55°C): potent antinociception in a dose-dependent manner
- Kp ([6]; male, C57BL/6, mouse, brain/plasma, ip, 20 mg/kg, read-out: Kp (AUCbrain/AUCplasma)): 1.27
- AUC ([6]; male, C57BL/6, mouse, ip, mice, plasma, i.p., 20 mg/kg (method), read-out: (AUC)0-4 h in plasma): 733 ng·h/mL
- (AUC)0-4 h in brain ([6]; mice, brain, i.p., 20 mg/kg (method)): 933.4 ng·h/g
